Measured values taken from patent US20100179324A1, “ANTI-TUMOR AGENT COMPRISING SULPHOSTIN OR SULPHOSTIN-RELATED COMPOUND AS THE ACTIVE INGREDIENT” (Microbial Chemistry Research Foundation, priority 2007, published 2010).

Legend:
[1] = test system: Colon26 colorectal cancer cells; assay: Anti-tumor effect on Colon26 (Experimental Example 1), transplanted mice; format: in vivo; settings: for suppression rate: tumor weight Day 28 vs control group
Procedure: (§1) Also, in the Examples, the “suppression rate” was calculated using the following formula.
(§2) Suppression rate (%)=(1−tumor weight in the administration group/tumor weight in the control group)×100
(§3) Six-week-old BALB/cAnNCrj female mice were used for this test. The following six groups were provided: Group 1 in which physiological saline (solvent) was administered; Group 2 in which sulphostin was administered at a dose of 200 mg/kg; Group 3 in which sulphostin was administered at a dose of 50 mg/kg; Group 4 in which PT-100 was administered at a dose of 200 mg/kg; Group 5 in which PT-100 was administered at a dose of 50 mg/kg; and Group 6 in which Furtulon was administered at a dose of 30 mg/kg. The number of animals was set to eight in Group 1 (control group) and to six in each of Groups 2 to 6 (drug administration groups).
(§4) On Day 0, 2×10^5 Colon26 colorectal cancer cells were transplanted into the groin of the mice. Each of sulphostin and PT-100 was intraperitoneally administered to the mice at the above dose once in a day on Days 1 to 6, 8 to 13, 15 to 20 and 22 to 27. Furtulon was orally administered following a similar administration schedule. In use, sulphostin and PT-100 were each diluted with physiological saline to have an intended concentration; and Furtulon was suspended in 0.5% sodium carboxymethyl cellulose and then diluted with physiological saline to have an intended concentration. On Day 28, the tumor was taken out from each mouse and weighed, to thereby determine the effect of each drug. In addition, the presence or absence of side effects of each drug was confirmed by monitoring a change in body weight of the mouse in the course of the treatment and observing the degree of hair loss in the mouse after administration.

[2] = test system: Colon26 colorectal cancer cells; assay: Anti-tumor effect on advanced Colon26 (Experimental Example 2), drug from Day 10; format: in vivo, mouse
Procedure: as §1, §2
as §3, with “of 50” for “of 200”, “of 3.1” for “of 50”, “to seven” for “to eight”, “to five” for “to six”
as §4, with “mice. Administration of each drug was initiated from Day 10 when the transplanted cancer cells were thought to grow.” for “mice.”, “Days 10” for “Days 1”, “to 18 and 20” for “to 6, 8”, “to 25.” for “to 13, 15 to 20 and 22 to 27.”, “mouse” for “mouse in the course of the treatment”, “mouse in the course of the treatment.” for “mouse after administration.”

B16-BL6 melanoma cells = assay: Anti-tumor effect on B16-BL6 (Experimental Example 3), transplanted mice; format: in vivo, mouse; settings: tumor weight Day 21 vs control group
Procedure: as §1, §2
Five-week-old C57BL/6NCrj female mice were used for this test. The following three groups were provided: Group 1 in which physiological saline (solvent) was administered; Group 2 in which sulphostin was administered at a dose of 200 mg/kg; and Group 3 in which sulphostin was administered at a dose of 50 mg/kg. The number of animals was set to seven in Group 1 (control group) and to five in each of Groups 2 and 3 (drug administration groups).
On Day 0, 2×10^5 B16-BL6 melanoma cells were transplanted into the groin of the mice. Twenty four hours after transplantation, sulphostin was intraperitoneally administered to the mice at the above respective doses once in a day on Days 1 to 5, 7 to 12, and 14 to 19. In use, sulphostin was diluted with physiological saline to have an intended concentration. On Day 21, the tumor was taken out from each mouse and weighed, to thereby determine the effect of sulphostin.

[3] = Toxicity test on mouse (Experimental Example 4); format: in vivo; settings: i.p. twice a day for 10 days; for Heart weight (Avg.) / Left kidney weight (Avg.) / Liver weight (Avg.) / Lung weight (Avg.) / Right kidney weight (Avg.) / Spleen weight (Avg.) / Thymus weight (Avg.): dissected Day 19; for change in body weight: normal mice
Procedure: Four-week-old female ICR mice (Crj: CD-1) were used for this test. The following six groups were provided: Group 1 in which physiological saline (solvent) was administered; Group 2 in which sulphostin was administered at a dose of 50 mg/kg; Group 3 in which sulphostin was administered at a dose of 25 mg/kg; Group 4 in which PT-100 was administered at a dose of 50 mg/kg; Group 5 in which PT-100 was administered at a dose of 25 mg/kg; Group 6 in which PT-100 was administered at a dose of 12.5 mg/kg; and Group 7 in which PT-100 was administered at a dose of 6.3 mg/kg. Note that each of the above doses is a dose for each administration. The number of animals was set to three in each of the groups. Each drug was intraperitoneally administered to each mouse twice in a day for 10 consecutive days, and the mouse was weighed at an appropriate time and monitored over time. On Day 19 after initiation of administration, each mouse was dissected under anesthesia and examined for remarks.

EL-4 mouse thymoma cells = assay: Test on cell toxicity, MTT method, EL-4; format: cell-based; settings: 48 h, EL4 thymoma, two days incubation
Procedure: (§5) The inhibitory effect of sulphostin on the proliferation of tumor cells in vitro was investigated. The culture liquid used was a 10% FCS-containing RPMI1640 medium, and incubation was performed at 37° C. in 5% CO2-air. EL-4 mouse thymoma cells, Colon-26 mouse colon cancer cells and B16-BL6 mouse melanoma cells were incubated at 1×10^4 cells/well for two days, and then the number of cells was measured by the MTT method. Specifically, MTT (0.4% and 10 μL) was added to each cell culture, followed by incubating for four hours. Further, 20% sodium dodecyl sulphate (SDS) was added thereto in an amount of 100 μL, and each plate was measured for absorbance at 570 nm and 690 nm using a microplate reader. Sulphostin was added to the wells simultaneously with the initiation of the tumor cell incubation.

[4] = test system: Colon-26 mouse colon cancer cells; assay: Test on cell toxicity, MTT method, Colon-26; format: cell-based; settings: Colon 26, 48 h, Colon26 colon cancer, two days incubation
Procedure: as §5

[5] = test system: B16-BL6 mouse melanoma cells; assay: Test on cell toxicity, MTT method, B16-BL6; format: cell-based; settings: 48 h, two days incubation
Procedure: as §5

[6] = 50 mg/kg intraperitoneal once a day from Day 1
[7] = 50 mg/kg intraperitoneal, six mice per group
[8] = 200 mg/kg intraperitoneal once a day from Day 1
[9] = 200 mg/kg intraperitoneal, six mice per group
[10] = 3.1 mg/kg intraperitoneal from Day 10, tumor weight Day 28 vs control group
[11] = 50 mg/kg intraperitoneal from Day 10, tumor weight Day 28 vs control group

## CC(C)[C@H](N)C(=O)N1CCC[C@H]1B(O)O [PT-100]
[1]; 50 mg/kg intraperitoneal
  hair loss by continuous administration: extremely observed throughout the body
[1]; [6]
  suppression rate: 66.7%
[1]; [7]
  tumor regression: the tumor was not regressed
[1]; 200 mg/kg intraperitoneal
  hair loss by continuous administration: extremely observed throughout the body
  loss of body weight by continuous administration: considerably observed
[1]; [8]
  suppression rate: 62.3%
[1]; [9]
  tumor regression: the tumor was not regressed
[2]; [10]
  suppression rate on tumor weight: 51.5%
[2]; [11]
  suppression rate on tumor weight: 70.8%

## N[C@H]1CCCN([P@@](N)(=O)NS(=O)(=O)O)C1=O [Sulphostin, 3(S)-amino-1-((R)-amino(sulfoamino)phosphinyl)-2-piperidone]
[1]; 50 mg/kg intraperitoneal
  hair loss by continuous administration: hardly observed
  loss of body weight by continuous administration: not observed
[1]; [6]
  suppression rate: 87.8%
[1]; [7]
  tumor regression: two out of six mice
[1]; 200 mg/kg intraperitoneal
  hair loss by continuous administration: hardly observed
  loss of body weight by continuous administration: not observed
[1]; [8]
  suppression rate: 91.7%
[1]; [9]
  tumor regression: two out of six mice
[2]; [10]
  suppression rate on tumor weight: 66.2%
[2]; [11]
  suppression rate on tumor weight: 87.3%
[2]; intraperitoneal from Day 10, dose not specified (groups 50 and 3.1 mg/kg)
  loss of body weight by continuous administration: not observed
B16-BL6 melanoma cells; [6]
  suppression rate: 53.3%
B16-BL6 melanoma cells; [8]
  suppression rate: 51.7%
[3]; 25 mg/kg per administration
  abnormalities during monitoring and in remarks after dissection: nor did they show any abnormalities
  Heart weight (Avg.): 118.3 mg
  Left kidney weight (Avg.): 204.7 mg
  Liver weight (Avg.): 1769.3 mg
  Lung weight (Avg.): 182 mg
  Right kidney weight (Avg.): 210.3 mg
  Spleen weight (Avg.): 127.7 mg
  Thymus weight (Avg.): 63.7 mg
  change in body weight: did not decrease in body weight
[3]; 50 mg/kg per administration
  abnormalities during monitoring and in remarks after dissection: nor did they show any abnormalities
  Heart weight (Avg.): 120 mg
  Left kidney weight (Avg.): 202.3 mg
  Liver weight (Avg.): 1803.7 mg
  Lung weight (Avg.): 165.3 mg
  Right kidney weight (Avg.): 206.7 mg
  Spleen weight (Avg.): 141.7 mg
  Thymus weight (Avg.): 76 mg
  change in body weight: did not decrease in body weight
EL-4 mouse thymoma cells
  IC50: > 100 µg/mL
[4]
  IC50: > 100 µg/mL
[5]
  IC50: > 100 µg/mL

## C[C@H]1O[C@@H](n2cc(F)c(=O)[nH]c2=O)[C@H](O)[C@@H]1O [Furtulon, Doxifluridine]
[1]; 30 mg/kg oral
  tumor regression: the tumor was not regressed
[1]; 30 mg/kg oral once a day from Day 1
  suppression rate: 56.9%
[2]; 30 mg/kg oral from Day 10, tumor weight Day 28 vs control group
  suppression rate: 47.0%
